Measurements reported in patent US20100298305A1, “TIZANIDINE FOR THE TREATMENT OF POST-TRAUMATIC STRESS DISORDER AND NIGHTMARES” (The United States Government, as represented by the …, priority 2008, published 2010).
Where two headings read alike, the source gives them in different places.

Experiments:
PTSD [1] = settings: average dose 2.4 mg; military veterans with PTSD taking or not taking antidepressant; cited from earlier work
PTSD [2] = assay: Example 2 case summaries 7-9: switching from once to twice-daily dosing of tizanidine
Protocol: They were continued on aripiprazole, quetiapine, sertraline, and trazodone. Treatment with tizanidine was started for the nightmares and poor sleep.
They were switched from tizanidine 8 mg at bedtime to tizanidine 6 mg in the morning and 8 mg at bedtime. […] They continued on the sertraline, divalproex, and trazodone for initial insomnia. The tizanidine was switched to 4 mg in the morning and 4 mg at bedtime.
Subject was started on tizanidine up to 8 mg at bedtime for nightmares. They also were issued a device to assist with memory problems. A rating scale for common cognitive problems was administered by speech pathology prior to issuing them a personal digital assistant as a memory assist device.
They continued to take sertraline and tizanidine. At a psychology evaluation session, subject completed two self-report instruments of PTSD and depressive symptoms to establish a baseline indication of symptom severity. […] Subject was then switched from tizanidine 8 mg at bedtime to 4 mg twice daily.
After approximately one year of being followed in the psychiatry clinic, they became more willing to try medication and agreed to a trial of tizanidine.

[3] = cited from earlier work
PTSD [4] = settings: Case 10
Excerpt: Given the prior history of ADHD, methylphenidate was cautiously added to the venlafaxine. […] They were referred to a specialty inpatient program for PTSD. During the inpatient program, the antidepressant was switched from venlafaxine to duloxetine.

[5] = fraction of the potency of clonidine; cited from earlier work
PTSD [6] = assay: Example 1 case summaries 1-6: tizanidine as adjunctive treatment for PTSD, anxiety, depression, psychosis or impaired cognition; assay type: in vivo, human
Protocol: Treatment was begun with sertraline 100 mg per day for anxiety and nortriptyline 25 mg at bedtime for headaches. […] Treatment with tizanidine was started and the dose was increased to 8 mg at bedtime.
Tizanidine was started and titrated up to 4 mg at bedtime along with aripiprazole (15 mg at bedtime) and clonazepam (0.5 mg daily).
These medications included sertraline (250 mg daily), divalproex sodium (2500 mg daily), quetiapine (100 mg twice daily and 400 mg at bedtime), amitriptyline (25 mg at bedtime), and tramadol (50 mg as needed for severe headache). […] A trial of tizanidine was started and the dose was titrated up to 8 mg at bedtime.
Pharmacologic Treatment and Response: While on the psychiatry unit, they were treated with sertraline for PTSD and nortriptyline for headaches and depression. […] They were started on tizanidine 4 mg at bedtime.
After approximately one year, subject agreed to a trial of tizanidine as an addition to sertraline. […] They agreed to increase the dose to 4 mg at bedtime and follow-up in four weeks. […] An atypical antipsychotic medication, aripiprazole, was added to their medications.
Treatment with tizanidine 4 mg at bedtime was added to the existing sertraline.

[7] = Case 7, switched from tizanidine 8 mg at bedtime to 6 mg in the morning and 8 mg at bedtime, two months later
[8] = Case 7, tizanidine 4 mg twice daily, one month after switch
[9] = Case 7, tizanidine 8 mg at bedtime, four weeks
[10] = Case 8, tizanidine 4 mg twice daily, two weeks after switch
[11] = Case 9, trial of tizanidine, two months later
[12] = tizanidine 4 mg twice daily with methylphenidate, after four weeks
[13] = Case 2, tizanidine 4 mg at bedtime with aripiprazole 15 mg and clonazepam 0.5 mg, after two months
[14] = Case 2, tizanidine 8 mg at bedtime, other medications stopped, two months later
[15] = Case 3, tizanidine 8 mg at bedtime, after four weeks
[16] = Case 4, tizanidine 4 mg at bedtime
[17] = Case 5, tizanidine 2 mg at bedtime added to sertraline, several weeks
[18] = Case 5, tizanidine 4 mg at bedtime with sertraline, four weeks
[19] = Case 5, tizanidine 4 mg at bedtime, aripiprazole added, eight weeks later
[20] = Case 5, tizanidine 8 mg at bedtime, not taking sertraline and aripiprazole, eight weeks
[21] = Case 5, tizanidine 8 mg at bedtime, primary care appointment one month later
[22] = Case 6, tizanidine 4 mg at bedtime added to sertraline, approximately four weeks

In the case of `N=C(N)NC(=O)Cc1c(Cl)cccc1Cl` [guanfacine], the “relieving signs or symptoms of PTSD compared to placebo” value (PTSD [1]) is given as “not effective compared to placebo”.
For `Clc1ccc2nsnc2c1NC1=NCCN1` [tizanidine], the daytime anxiety (PTSD [2]; [7]) was “greater reduction to their daytime anxiety”, the “nightmares and sleep quality” value (PTSD [2]; [7]) was “no change to the beneficial impact” and the nightmares (PTSD [2]; Case 7, tizanidine 4 mg twice daily with sertraline, divalproex, trazodone, one month after switch) was “continued to have no nightmares”. For the same compound, the daytime anxiety (PTSD [2]; [8]) was “no change to daytime anxiety”, the daytime cognition (PTSD [2]; [8]) was “no change in daytime cognition” and the “desire to smoke cigarettes” value (PTSD [2]; [8]) was “definite reduction in their desire to smoke”. For the same compound, the mood (PTSD [2]; [8]) was “no changes in mood”, the sleep (PTSD [2]; [8]) was “continued to have restful sleep” and the nightmares overall (PTSD [2]; Case 7, tizanidine 8 mg at bedtime with aripiprazole, quetiapine, sertraline, trazodone, four weeks) was “greatly reduced nightmares overall”. The “anxiety during the day” value (PTSD [2]; [9]) was “significantly less anxiety during the day”, the combat-related nightmares (PTSD [2]; [9]) was “complete absence of combat-related nightmares” and the hallucinations (PTSD [2]; [9]) was “fewer hallucinations”. The tremor (PTSD [2]; [9]) was “improved tremor”, the sleep (PTSD [2]; Case 8, switched from tizanidine 8 mg at bedtime to 4 mg twice daily, two weeks later) was “no change in sleep” and the “energy (new onset, gradually improving)” value (PTSD [2]; [10]) was “mild decrease in energy”. For the same compound, the “hypervigilance during the day” value (PTSD [2]; [10]) was “reduced hypervigilance during the day”, the “irritability during the day” value (PTSD [2]; [10]) was “less irritability during the day” and the nightmares (PTSD [2]; [10]) was “eliminates nightmares”. The “feeling better the next day” value (PTSD [2]; Case 8, tizanidine 8 mg at bedtime with sertraline) was “significant improvement”, the cognitive function (PTSD [2]; Case 8, tizanidine up to 8 mg at bedtime with sertraline, memory assist device also issued, following weeks) was “improved” and the “twice-daily compared to once-daily dosing” value (PTSD [2]; Case 9, tizanidine 4 mg twice daily versus 8 mg at bedtime, same total milligrams) was “clear superiority of twice-daily”. The cognitive symptoms (PTSD [2]; [11]) was “unchanged”, the headaches (PTSD [2]; [11]) was “much less intense” and the mood and energy (PTSD [2]; [11]) was “improved”. The sleep (PTSD [2]; [11]) was “better”, the anxiety (PTSD [2]; Case 9, trial of tizanidine, two months later, still startled easily and hypervigilant) was “less anxiety” and the peak serum levels ([3]; single 4 mg capsule) was ~4.0 ng/mL. The peak serum levels ([3]; single 4 mg tablet) was “about 2.7 ng/ml”, the nightmares (PTSD [4]; [12]) was “absence of nightmares” and the overall helpfulness (PTSD [4]; [12]) was “extremely helpful”. For the same compound, the sleep (PTSD [4]; [12]) was “greatly improved sleep”, the daytime anxiety (PTSD [4]; when taking tizanidine 4 mg twice daily) was “less daytime anxiety” and the “potency in lowering blood pressure relative to clonidine” value [5] was “one-tenth to one-fiftieth”. The daytime anxiety (PTSD [6]; Case 1, tizanidine 8 mg at bedtime, after two weeks) was “less daytime anxiety”, the reduction in nightmares (PTSD [6]; Case 1, tizanidine 8 mg at bedtime, after two weeks, subject report) was ~50% and the alcohol use (PTSD [6]; [13]) was “one to two”. For the same compound, the mood and energy (PTSD [6]; [13]) was “somewhat better”, the “other signs and symptoms of Major Depression, PTSD, and Psychosis NOS” value (PTSD [6]; [13]) was “unchanged” and the overall condition (PTSD [6]; [13]) was “mildly improved”. For the same compound, the panic attacks (PTSD [6]; [13]) was “had not experienced any panic attacks”, the overall condition (PTSD [6]; Case 2, tizanidine 8 mg at bedtime, other medications stopped by subject, two months later) was “markedly improved” and the alcohol use (PTSD [6]; Case 2, tizanidine 8 mg at bedtime, other medications stopped, preceding two months) was “had not drunk any alcohol”. The daytime anxiety (PTSD [6]; [14]) was “less anxious during the day”, the energy (PTSD [6]; [14]) was “improved” and the hallucinations (PTSD [6]; [14]) was “had stopped”. The “intrusive thoughts of combat or the Iraq war” value (PTSD [6]; [14]) was “less frequent”, the nightmares (PTSD [6]; [14]) was “much less frequent” and the panic attacks (PTSD [6]; [14]) was “able to leave their house without panic attacks”. For the same compound, the sleep (PTSD [6]; [14]) was “improved”, the combat-related nightmares (PTSD [6]; [15]) was “complete absence of combat-related nightmares” and the “concentration and attention during the day” value (PTSD [6]; [15]) was “easier to concentrate”. For the same compound, the daytime anxiety (PTSD [6]; [15]) was “substantial decrease in daytime anxiety”, the nightmares overall (PTSD [6]; [15]) was “substantial reduction in nightmares overall” and the sleep (PTSD [6]; [15]) was “significantly improved”. The “tremor, at rest and with action” value (PTSD [6]; [15]) was “improved”, the hallucinations (PTSD [6]; Case 3, tizanidine 8 mg at bedtime, after four weeks, quetiapine dose decreased by subject) was “greatly reduced” and the “irritability and anxiety during the day” value (PTSD [6]; [16]) was “less irritable and less anxious”. For the same compound, the nightmares (PTSD [6]; [16]) was “reduced their nightmares”, the quality of sleep (PTSD [6]; [16]) was “improved the quality of their sleep” and the nightmares (PTSD [6]; Case 4, tizanidine 4 mg at bedtime, approximately three weeks after starting) was “somewhat improved”. For the same compound, the nightmares (PTSD [6]; [17]) was “no change to nightmares”, the “side effects or other adverse effects” value (PTSD [6]; [17]) was “no side effects or other adverse effects” and the nightmares frequency (PTSD [6]; [18]) was 3-4 times per week. The overall condition (PTSD [6]; [18]) was “not doing well”, the panic attacks frequency (PTSD [6]; [18]) was 2-3 times per week and the alcohol use (PTSD [6]; [19]) was “one to two”. The “mood and energy level” value (PTSD [6]; [19]) was “an improvement in their mood and energy level”, the overall improvement (PTSD [6]; [19]) was “limited improvement” and the “remainder of PTSD and depressive symptoms” value (PTSD [6]; [19]) was “unchanged”. The panic attacks (PTSD [6]; Case 5, tizanidine 4 mg at bedtime, aripiprazole added, eight weeks later, for several weeks) was “free from panic attacks”, the side-effects (PTSD [6]; Case 5, tizanidine 4 mg at bedtime, eight weeks later) was “no side-effects” and the alcohol consumption (PTSD [6]; [20]) was “decreased to less than once per month”. The “anxiety and energy during the day” value (PTSD [6]; [20]) was “less anxious and more energetic”, the nightmares (PTSD [6]; [20]) was “improved” and the overall improvement (PTSD [6]; [20]) was “substantial improvement”. For the same compound, the panic attacks (PTSD [6]; [20]) was “continued to be absent”, the anxiety (PTSD [6]; [21]) was “less anxiety” and the depression (PTSD [6]; [21]) was “improved depression”. The hallucinations (PTSD [6]; [21]) was “denied having any hallucinations”, the nightmares (PTSD [6]; [21]) was “decreased nightmares” and the “feeling rested the next day” value (PTSD [6]; [22]) was “more rested the next day”. The night sweats (PTSD [6]; [22]) was “fewer night sweats”, the nightmares (PTSD [6]; [22]) was “reduction in their nightmares” and the overall sleep quality (PTSD [6]; [22]) was “improved”. The sleep time (PTSD [6]; [22]) was “had not increased their sleep time”.
